Consider 18 compounds from US10676468B2, “N-(3-heteroarylaryl)-4-arylarylcarboxamides and analogs as hedgehog pathway inhibitors and use thereof” (IMPACT Therapeutics, Inc., priority 2012, dated 2020).

What all share (type): cell-based, mouse
Assay [1] deals with Hedgehog Signaling Pathway. Kind of assay: SAG-induced differentiation of C3H10T1/2 cells into osteoblastic cells, intracellular alkaline phosphatase activity. The settings on record: 1 μM SAG, 5 days, alkaline phosphatase activity (OD405), read-out: IC50 values of compounds that inhibit Hh pathway. An outline of the steps: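 Mouse C3H10T1/2 cells were induced with SAG and exposed to compound (10 μM to 1 nM) for 5 days at 37 °C. Cells were lysed in 0.2% Triton, and alkaline phosphatase activity was read as OD405 over 30 min at 37 °C in pH 9.8 substrate buffer. IC50 came from a non-linear fit of background-subtracted OD405 against log concentration.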

In assay [2] the test system is Hedgehog Signaling Pathway. Put plainly: SHH-induced differentiation of C3H10T1/2 cells into osteoblastic cells, intracellular alkaline phosphatase activity. Particulars: 10 nM SHH-N, 5 days, alkaline phosphatase activity (OD405), read-out: IC50 values of compounds that inhibit Hh pathway. An outline of the steps: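 Hedgehog pathway inhibition was taken as loss of SHH-driven osteoblastic differentiation. Test compound (10 nM–10 μM) plus SHH-N (10 nM) was applied to C3H10T1/2 cells for 5 days, then lysate phosphatase turnover was measured as the 30-min OD405 change at 37 °C. IC50 was fitted from activity versus log dose.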

In assay [3] the test system is Hedgehog Signaling Pathway. Kind of assay: Gli-Luc reporter gene cell assay in C3H10T1/2/Gli-Luc cells stimulated with Shh. Particulars: 30 nM Shh, luciferase activity (RLU), read-out: IC50 values of compounds that inhibit Hh pathway. An outline of the steps:
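IC50 from nonlinear fit of luciferase RLU versus log compound concentration. Stably transfected C3H10T1/2/Gli-Luc cells received a 7-point compound series alongside Shh (30 nM in the added medium) for 24 h at 37 °C in DMEM/10% FBS, then were lysed for luciferase readout.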
A general note: In a reporter assay the amount or activity of a reporter protein is the signal.

The mark [4] stands for this setting: Mus musculus, C3H 10T1/2, 120 h.

Molecules are shown by their SMILES.

What is called IC50 is the midpoint of a concentration-inhibition curve. `CC(C)N1[C@H](C)CN(c2ccc(C(=O)Nc3ccc(Cl)c(-c4nc5ccccc5[nH]4)c3)c(Cl)c2)C[C@@H]1C` [Example 125, N-(3-(1H-benzo[d]imidazol-2-yl)-4-chlorophenyl)-2-chloro-4-((3S,5R)-4-isopropyl-3,5-dimethylpiperazin-1-yl)benzamide]: the IC50 came to 23 nM in assay [1] (setting [4]); 1.2 nM in assay [2] (setting [4]); 0.57 nM in assay [3] (Mus musculus, C3H 10T1/2, 24 h).

Regarding `C[C@@H]1CN(c2ccc(C(=O)Nc3ccc(Cl)c(-c4nc5ccccc5[nH]4)c3)cn2)C[C@H](C)O1` [Example 35, N-(3-(1H-benzo[d]imidazol-2-yl)-4-chlorophenyl)-6-((2S,6R)-2,6-dimethylmorpholino)nicotinamide], the IC50 worked out at 56 nM in assay [1] (setting [4]); 10 nM in assay [2] (setting [4]); 7.8 nM in assay [3] (Mus musculus, C3H 10T1/2, 24 h).

With `CS(=O)(=O)c1ccc(C(=O)Nc2ccc(Cl)c(-c3ncc(-c4cccs4)[nH]3)c2)c(Cl)c1` [Example 160, N-(3-(5-(thiophen-2-yl)-1H-imidazol-2-yl)-4-chlorophenyl)-2-chloro-4-(methylsulfonyl)benzamide], the IC50 is 66 nM in assay [1] (setting [4]); above 10000 nM in assay [2] (setting [4]); 6.5 nM in assay [3] (Mus musculus, C3H 10T1/2, 24 h).

As for `CCCc1cnc(-c2cc(NC(=O)c3ccc(N4C[C@@H](C)N(C)[C@@H](C)C4)cc3C)ccc2Cl)[nH]1` [Example 172, N-(3-(5-propyl-1H-imidazol-2-yl)-4-chlorophenyl)-2-methyl-4-((3S,5R)-3,4,5-trimethylpiperazin-1-yl)benzamide], the half-inhibitory concentration (IC50) in assay [1] (setting [4]) came to 127 nM; in assay [2] (setting [4]) it was 45 nM; in assay [3] (Mus musculus, C3H 10T1/2, 24 h), 17 nM.

Consider `CCCc1cnc(-c2cc(NC(=O)c3ccc(N4C[C@@H](C)N(C)[C@@H](C)C4)cc3Cl)ccc2Cl)[nH]1` [Example 173], for which the IC50 was 165 nM in assay [1], 60 nM in assay [2] and 15 nM in assay [3] (24 hours).

Turning to `Cc1cc(-c2ccc(C(F)(F)F)cc2)ccc1C(=O)Nc1cnc(C)c(-c2nc3ccccc3[nH]2)c1` [Example 71, N-(5-(1H-benzo[d]imidazol-2-yl)-6-methylpyridin-3-yl)-3-methyl-4′-(trifluoromethyl)biphenyl-4-carboxamide], the IC50 stood at 181 nM in assay [1] (setting [4]); 3.6 nM in assay [2] (setting [4]); 7.1 nM in assay [3] (Mus musculus, C3H 10T1/2, 24 h).

In the case of `Cc1cc(N2C[C@@H](C)N(C)[C@@H](C)C2)ccc1C(=O)Nc1ccc(Cl)c(-c2ncc(C(C)C)[nH]2)c1` [Example 170, N-(3-(5-isopropyl-1H-imidazol-2-yl)-4-chlorophenyl)-2-methyl-4-((3S,5R)-3,4,5-trimethylpiperazin-1-yl)benzamide], the IC50 in assay [1] (setting [4]) was found to be 30 nM; in assay [2] (setting [4]) it was 0.22 nM; in assay [3] (Mus musculus, C3H 10T1/2, 24 h), 0.22 nM.

Regarding `Cc1cc(N2C[C@@H](C)N(C)[C@@H](C)C2)ccc1C(=O)Nc1cnc(Cl)c(-c2nc3ccccc3[nH]2)c1` [Example 87], the 50% inhibitory concentration (IC50) in assay [1] stood at 21 nM; in assay [2], 1.7 nM; in assay [3] (24 hours), 0.53 nM.

Take `C[C@@H]1CN(c2ccc(C(=O)Nc3ccc(Cl)c(-c4ccccn4)c3)c(Cl)c2)C[C@H](C)N1C` [Example 208, N-(3-(pyridin-2-yl)-4-chlorophenyl)-2-chloro-4-((3S,5R)-3,4,5-trimethylpiperazin-1-yl)benzamide]: the IC50 amounted to 52 nM in assay [1] (setting [4]); 1.3 nM in assay [2] (setting [4]); 3.7 nM in assay [3] (Mus musculus, C3H 10T1/2, 24 h).

Turning to `CCN1[C@H](C)CN(c2ccc(C(=O)Nc3ccc(Cl)c(-c4ncc(-c5cccs5)[nH]4)c3)c(Cl)c2)C[C@@H]1C` [Example 158, N-(3-(5-(thiophen-2-yl)-1H-imidazol-2-yl)-4-chlorophenyl)-2-chloro-4-((3S,5R)-4-ethyl-3,5-dimethylpiperazin-1-yl)benzamide], the IC50 in assay [1] (setting [4]) is 8.2 nM; in assay [2] (setting [4]), 0.42 nM; in assay [3] (Mus musculus, C3H 10T1/2, 24 h), 0.3 nM.

On to `Cc1cc(N2C[C@@H](C)O[C@@H](C)C2)ccc1C(=O)Nc1ccc(Cl)c(-c2nc3ccccc3[nH]2)c1` [Example 32, N-(3-(1H-benzo[d]imidazol-2-yl)-4-chlorophenyl)-2-methyl-4-((2S,6R)-2,6-dimethylmorpholino)benzamide], for which the IC50 turned out to be 53 nM in assay [1] (setting [4]); 7.9 nM in assay [2] (setting [4]); 7.2 nM in assay [3] (Mus musculus, C3H 10T1/2, 24 h).

With `Cc1cc(N2C[C@@H](C)N(C)[C@@H](C)C2)ccc1C(=O)Nc1ccc(Cl)c(-c2nc3ccncc3[nH]2)c1` [Example 197, N-(3-(3H-imidazo[4,5-c]pyridin-2-yl)-4-chlorophenyl)-2-methyl-4-((3S,5R)-3,4,5-trimethylpiperazin-1-yl)benzamide], the concentration for half-maximal inhibition (IC50) in assay [1] (setting [4]) turned out to be 306 nM; in assay [2] (setting [4]) it was 115 nM; in assay [3] (Mus musculus, C3H 10T1/2, 24 h), 9.5 nM.

For `Cc1cc(-c2ccc(C(F)(F)F)cc2)ccc1C(=O)Nc1cncc(-c2nc3ccccc3[nH]2)c1` [Example 60, N-(5-(1H-benzo[d]imidazol-2-yl)pyridin-3-yl)-3-methyl-4′-(trifluoromethyl)biphenyl-4-carboxamide], the IC50 in assay [1] (setting [4]) turned out to be 141 nM; in assay [2] (setting [4]), 18 nM; in assay [3] (Mus musculus, C3H 10T1/2, 24 h), 23 nM.

For `Cc1c(C(=O)Nc2ccc(Cl)c(-c3nc4ccccc4[nH]3)c2)ccc(N2C[C@@H](C)N(C)[C@@H](C)C2)c1F` [Example 122, N-(3-(1H-benzo[d]imidazol-2-yl)-4-chlorophenyl)-2-methyl-3-fluoro-4-((3S,5R)-3,4,5-trimethylpiperazin-1-yl)benzamide], the IC50 is 29 nM in assay [1] (setting [4]); 0.52 nM in assay [2] (setting [4]); 0.39 nM in assay [3] (Mus musculus, C3H 10T1/2, 24 h).

On to `C[C@@H]1CN(c2ccc(C(=O)Nc3ccc(Cl)c(-c4nc5ccccc5s4)c3)c(Cl)c2)C[C@H](C)N1C` [Example 207, N-(3-(benzo[d]thiazol-2-yl)-4-chlorophenyl)-2-chloro-4-((3S,5R)-3,4,5-trimethylpiperazin-1-yl)benzamide], for which the IC50 worked out at 158 nM in assay [1] (setting [4]); 31 nM in assay [2] (setting [4]); 8.5 nM in assay [3] (Mus musculus, C3H 10T1/2, 24 h).

For the compound `Cc1cc(N2C[C@@H](C)N(C(C)C)[C@@H](C)C2)ccc1C(=O)Nc1ccc(Cl)c(-c2nc3ccccc3[nH]2)c1` [Example 101, N-(3-(1H-benzo[d]imidazol-2-yl)-4-chlorophenyl)-2-methyl-4-((3S,5R)-4-isopropyl-3,5-dimethylpiperazin-1-yl)benzamide], the 50% inhibitory concentration (IC50) in assay [1] (setting [4]) was determined as 46 nM; in assay [2] (setting [4]), 0.64 nM; in assay [3] (Mus musculus, C3H 10T1/2, 24 h) it was 0.67 nM.

`C[C@@H]1CN(c2ccc(C(=O)Nc3ccc(Cl)c(-c4ncc(C5CCCCC5)[nH]4)c3)c(Cl)c2)C[C@H](C)N1C` [Example 184, N-(3-(5-cyclohexyl-1H-imidazol-2-yl)-4-chlorophenyl)-2-chloro-4-((3S,5R)-3,4,5-trimethylpiperazin-1-yl)benzamide]: the IC50 in assay [1] (setting [4]) came to 184 nM; in assay [2] (setting [4]), 28 nM; in assay [3] (Mus musculus, C3H 10T1/2, 24 h), 10 nM.

Take `C[C@@H]1CN(c2ccc(C(=O)Nc3ccc(Cl)c(-c4ncc(C5CCCC5)[nH]4)c3)c(Cl)c2)C[C@H](C)N1C` [Example 182, N-(3-(5-cyclopentyl-1H-imidazol-2-yl)-4-chlorophenyl)-2-chloro-4-((3S,5R)-3,4,5-trimethylpiperazin-1-yl)benzamide]: the IC50 in assay [1] (setting [4]) is 100 nM; in assay [2] (setting [4]), 9 nM; in assay [3] (Mus musculus, C3H 10T1/2, 24 h), 4.5 nM.
